Laboratory results as given in patent US11331299B2, “Medicinal use of serrulatane diterpenes” (The University of Sydney, priority 2016, dated 2022).
Where two headings read alike, the source gives them in different places.

Columns and labels:
[1] = biological target: T1, BAZ2A (h) bromodomain (Homo sapiens, UniProt Q9UIF9); assay: Epigenetic binding assay, Bromodomain; settings: read-out: % Inhibition of Control Specific Binding
T1 construct: Bromodomain
T1 sequence (Q9UIF9 1793-1897 limits assumed): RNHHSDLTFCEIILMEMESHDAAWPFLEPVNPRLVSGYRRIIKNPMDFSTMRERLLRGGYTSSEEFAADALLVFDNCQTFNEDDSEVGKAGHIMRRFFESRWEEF

[2] = biological target: T2, BRPF1-1 (h) bromodomain (Homo sapiens, UniProt P55201); assay: Epigenetic binding assay, Bromodomain; settings: 10 μM; read-out: % Inhibition of Control Specific Binding
T2 construct: Bromodomain
T2 sequence (P55201 628-732 limits assumed): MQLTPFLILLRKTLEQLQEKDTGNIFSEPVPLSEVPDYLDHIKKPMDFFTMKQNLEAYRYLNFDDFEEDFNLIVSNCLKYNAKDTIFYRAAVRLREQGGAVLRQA

[3] = biological target: T3, CREBBP (h) bromodomain (Homo sapiens, UniProt Q92793); assay: Epigenetic binding assay, Bromodomain; settings: for inhibition at 10 µM: read-out: % Inhibition of Control Specific Binding
T3 construct: Bromodomain; Eurofins CEREP (France), contract laboratory
T3 sequence (Q92793 1085-1192 limits assumed): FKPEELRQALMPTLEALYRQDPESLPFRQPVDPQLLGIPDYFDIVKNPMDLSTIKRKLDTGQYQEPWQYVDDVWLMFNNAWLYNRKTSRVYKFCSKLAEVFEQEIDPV

[4] = biological target: T4, CBX2 (h) chromodomain (Homo sapiens, UniProt Q14781); assay: Epigenetic binding assay, Chromodomain; settings: read-out: % Inhibition of Control Specific Binding
T4 construct: Recognition and specificity determinants of the human cbx chromodomains; Eurofins CEREP (France), contract laboratory
T4 sequence (Q14781 12-70 limits assumed): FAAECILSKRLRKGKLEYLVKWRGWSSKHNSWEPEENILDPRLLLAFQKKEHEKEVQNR

[5] = biological target: T5, JMJD1A (h) (Homo sapiens, UniProt Q9Y4C1); assay: Epigenetic enzyme assay, Demethylases (KDMs); assay type: biochemical; settings: for inhibition at 10 µM: read-out: % Inhibition of Control Values
T5 sequence (Q9Y4C1 1-1321): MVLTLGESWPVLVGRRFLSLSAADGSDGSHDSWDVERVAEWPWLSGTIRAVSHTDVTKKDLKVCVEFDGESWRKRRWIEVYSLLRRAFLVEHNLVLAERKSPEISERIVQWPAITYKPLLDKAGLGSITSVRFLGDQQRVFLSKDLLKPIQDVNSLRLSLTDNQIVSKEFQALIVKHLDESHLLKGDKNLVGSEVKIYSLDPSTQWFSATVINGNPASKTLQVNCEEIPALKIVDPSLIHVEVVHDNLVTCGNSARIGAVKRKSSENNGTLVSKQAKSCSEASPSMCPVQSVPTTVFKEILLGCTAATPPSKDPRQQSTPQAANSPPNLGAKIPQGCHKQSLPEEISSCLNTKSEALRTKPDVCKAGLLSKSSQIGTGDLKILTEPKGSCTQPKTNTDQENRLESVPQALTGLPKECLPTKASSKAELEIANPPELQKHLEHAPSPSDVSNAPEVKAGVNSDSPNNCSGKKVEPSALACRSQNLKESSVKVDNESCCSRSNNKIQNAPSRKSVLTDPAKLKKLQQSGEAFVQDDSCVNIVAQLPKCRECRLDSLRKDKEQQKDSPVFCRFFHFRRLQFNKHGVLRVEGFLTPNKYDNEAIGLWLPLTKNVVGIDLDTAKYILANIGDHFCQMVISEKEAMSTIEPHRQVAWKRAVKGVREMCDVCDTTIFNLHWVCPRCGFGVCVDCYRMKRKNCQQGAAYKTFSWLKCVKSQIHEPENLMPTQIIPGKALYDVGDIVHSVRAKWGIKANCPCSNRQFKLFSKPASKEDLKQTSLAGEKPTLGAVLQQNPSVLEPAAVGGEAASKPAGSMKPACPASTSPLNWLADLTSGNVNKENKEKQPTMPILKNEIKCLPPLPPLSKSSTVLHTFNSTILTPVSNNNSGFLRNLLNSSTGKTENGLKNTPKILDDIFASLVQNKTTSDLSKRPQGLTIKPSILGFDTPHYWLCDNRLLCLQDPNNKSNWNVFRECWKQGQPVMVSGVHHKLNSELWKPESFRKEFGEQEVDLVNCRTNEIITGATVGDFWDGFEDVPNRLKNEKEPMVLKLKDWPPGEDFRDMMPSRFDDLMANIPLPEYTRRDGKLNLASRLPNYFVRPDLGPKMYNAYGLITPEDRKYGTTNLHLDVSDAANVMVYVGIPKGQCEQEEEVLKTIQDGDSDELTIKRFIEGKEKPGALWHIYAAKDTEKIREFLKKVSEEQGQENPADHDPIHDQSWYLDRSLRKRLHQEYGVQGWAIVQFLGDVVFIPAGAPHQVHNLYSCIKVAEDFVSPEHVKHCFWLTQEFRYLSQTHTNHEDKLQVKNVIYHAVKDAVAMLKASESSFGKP

[6] = biological target: LSD1 (h) (Homo sapiens, UniProt O60341); assay: Epigenetic enzyme assay, Demethylases (KDMs); assay type: biochemical; settings: read-out: % Inhibition of Control Values
[7] = biological target: MSK2(h) (substrate histone H3 full length) (Homo sapiens, UniProt O75676); assay: Epigenetic enzyme assay, Kinases; assay type: biochemical; settings: read-out: % Inhibition of Control Values
Chain of MSK2(h) (substrate histone H3 full length) (O75676 whole entry): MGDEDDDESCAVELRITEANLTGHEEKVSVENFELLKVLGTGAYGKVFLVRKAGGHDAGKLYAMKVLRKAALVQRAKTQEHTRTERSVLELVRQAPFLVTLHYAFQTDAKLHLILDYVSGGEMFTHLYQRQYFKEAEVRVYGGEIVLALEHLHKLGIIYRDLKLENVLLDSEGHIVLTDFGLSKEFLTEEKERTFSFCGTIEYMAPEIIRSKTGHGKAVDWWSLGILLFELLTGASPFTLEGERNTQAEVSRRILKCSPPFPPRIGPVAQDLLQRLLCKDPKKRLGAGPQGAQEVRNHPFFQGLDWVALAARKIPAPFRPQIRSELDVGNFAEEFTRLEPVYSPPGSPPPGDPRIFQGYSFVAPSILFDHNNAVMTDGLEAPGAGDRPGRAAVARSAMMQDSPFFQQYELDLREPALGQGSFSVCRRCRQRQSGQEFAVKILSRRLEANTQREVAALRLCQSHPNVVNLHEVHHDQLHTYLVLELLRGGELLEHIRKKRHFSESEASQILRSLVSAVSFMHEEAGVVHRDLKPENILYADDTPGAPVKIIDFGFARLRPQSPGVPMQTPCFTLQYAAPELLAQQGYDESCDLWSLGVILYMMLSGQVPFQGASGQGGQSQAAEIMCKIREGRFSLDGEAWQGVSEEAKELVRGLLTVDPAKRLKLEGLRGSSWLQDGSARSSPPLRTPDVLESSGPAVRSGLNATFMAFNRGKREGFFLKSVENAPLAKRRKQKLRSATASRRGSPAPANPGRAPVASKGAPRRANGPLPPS

[8] = biological target: USP 14 (h) (Homo sapiens, UniProt P54578); assay: Epigenetic enzyme assay, Ubiquitin modifying enzymes; assay type: biochemical; settings: 10 μM; read-out: % Inhibition of Control Values
Chain of USP 14 (h) (P54578 whole entry): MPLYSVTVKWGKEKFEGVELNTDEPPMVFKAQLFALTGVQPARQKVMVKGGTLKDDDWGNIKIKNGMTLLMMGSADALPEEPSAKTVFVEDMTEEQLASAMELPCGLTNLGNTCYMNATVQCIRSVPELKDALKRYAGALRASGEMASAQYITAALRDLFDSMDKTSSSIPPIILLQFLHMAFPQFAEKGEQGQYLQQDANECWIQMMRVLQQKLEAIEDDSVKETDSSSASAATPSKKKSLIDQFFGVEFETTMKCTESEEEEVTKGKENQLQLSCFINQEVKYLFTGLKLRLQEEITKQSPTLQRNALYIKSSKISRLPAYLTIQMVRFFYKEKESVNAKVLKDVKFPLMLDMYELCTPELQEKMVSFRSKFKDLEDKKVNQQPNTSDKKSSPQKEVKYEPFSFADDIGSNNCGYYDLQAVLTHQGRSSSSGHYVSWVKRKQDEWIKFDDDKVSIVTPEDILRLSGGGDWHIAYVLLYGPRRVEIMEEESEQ

[9] = biological target: T6, Histamine H3 (Homo sapiens, UniProt Q9Y5N1); assay: Histamine H3 radio ligand binding
T6 construct: expressed in transfected cells; host or cells: Chem-1 cells
T6 sequence (Q9Y5N1 whole entry): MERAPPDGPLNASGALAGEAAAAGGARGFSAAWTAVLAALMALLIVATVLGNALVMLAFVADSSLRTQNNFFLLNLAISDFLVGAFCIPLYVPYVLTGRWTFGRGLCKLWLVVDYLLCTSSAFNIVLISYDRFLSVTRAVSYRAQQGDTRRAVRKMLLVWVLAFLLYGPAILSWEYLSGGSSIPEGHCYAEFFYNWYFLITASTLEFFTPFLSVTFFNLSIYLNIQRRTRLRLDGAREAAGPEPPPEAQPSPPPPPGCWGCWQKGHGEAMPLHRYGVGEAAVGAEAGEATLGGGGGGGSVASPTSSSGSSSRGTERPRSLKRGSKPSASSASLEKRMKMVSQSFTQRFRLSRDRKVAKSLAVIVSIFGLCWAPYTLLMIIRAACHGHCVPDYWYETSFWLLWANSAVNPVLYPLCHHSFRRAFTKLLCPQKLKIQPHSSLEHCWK
Protocol: The in vitro pharmacological studies were conducted by Eurofins PanLab (Taiwan) using the parameters shown in Table 13 with respect to appropriate literature references.

[10] = test system: A204 (soft tissue sarcoma); assay: OncoPanel cell proliferation assay (10-day); assay type: cell-based; settings: Homo sapiens; for EC50: read-out: Cell Count EC50; for IC50: read-out: Cell Count IC50
[11] = assay year 2014, read-out: % Control Response
[12] = assay year 2015, read-out: % Control Response
[13] = A204, Soft Tissue - Sarcoma, read-out: Cell Count GI50

| Structure (SMILES) | inhibition at 10 µM [1] | inhibition at 10 µM [2] | % Inhibition of Control Specific Binding ([3]; 10 μM) | inhibition at 10 µM ([3]; 10 μM) | IC50 ([3]; Table 9, inhibition/concentration-response curve) | inhibition at 10 µM [4] | % Inhibition of Control Values ([5]; 10 μM) | inhibition at 10 µM ([5]; 10 μM) | IC50 ([5]; Table 11, inhibition/concentration-response curve) | inhibition at 10 µM [6] | inhibition at 10 µM [7] | inhibition at 10 µM [8] | remaining activity at 10 µM [9, 11] | remaining activity at 10 µM [9, 12] | EC50 ([10]; A204, Soft Tissue - Sarcoma) | GI50 [10, 13] | IC50 ([10]; A204, Soft Tissue - Sarcoma) | GI50 ([10]; A204, read-out: GI50) |
| --- | --- | --- | --- | --- | --- | --- | --- | --- | --- | --- | --- | --- | --- | --- | --- | --- | --- | --- |
| CC(C)=CCC[C@H](CO)[C@@H]1CC[C@@H](C)c2c1cc(C)c(O)c2O [Compound 1, 7,8,18-trihydroxyserrulat-14-ene] | 56% | -25% | significant inhibitory activity | 65% | 3400 nM | 17% | significant inhibitory activity | 80% | 4500 nM | 10% | 9% | 1% | -10% | 12% | 520 nM | 520 nM | 540 nM |  |
| CC(C)=CCC[C@@H]1C(O)Oc2c(C)cc(O)c3c2[C@H]1CC[C@H]3C (stereo partly shown) [Compound 2, 5,18-epoxyserrulat-14-en-8,18-diol] | 17% | -25% |  | 21% |  | 6% |  | 37% |  | 10% | 12% | 0% | -5% | 24% | 8460 nM | 8500 nM | 8540 nM |  |
| CC(C)=CCC[C@@H]1COc2c(C)cc(O)c3c2[C@H]1CC[C@H]3C [Compound 3, 5,18-epoxy-8-hydroxyserrulat-14-ene] | 16% | -4% |  | 17% |  | 3% |  | -1% |  | -3% | -1% | -24% |  | 1% |  |  |  |  |
| CC(C)=CCC[C@H](C)[C@@H]1CC[C@@H](C)c2c1cc(C)c(O)c2O [Compound 4, 7,8-dihydroxyserrulat-14-ene] |  |  |  |  |  |  |  |  |  |  |  |  |  |  | 720 nM | 680 nM | 720 nM | 684 nM |
